In patent US6423716B1, “Nitrogenous heterocyclic compounds” (Kyowa Hakko Kogyo Co., Ltd., priority 1998, dated 2002):

biological target: T1, human β-PDGF receptor (Homo sapiens, UniProt P09619); assay: PDGF receptor phosphorylation inhibition test; format: cell-based; settings: CHO cells expressing human β-PDGF receptor cDNA; concentration inhibiting 50% of PDGF receptor phosphorylation
T1 construct: expressed in transfected cells; host or cells: Chinese hamster ovary (CHO) cells
Protocol: PDGF Receptor Phosphorylation Inhibition Test
This test was carried out according to the process disclosed in a literature [J. Biol. Chem., 266: 413-418 (1991)]. In this case, Chinese hamster ovary (CHO) cells to which human β-PDGF receptor cDNA had been inserted and in which it had been expressed were used in the test.

T1 sequence (P09619 33-1106): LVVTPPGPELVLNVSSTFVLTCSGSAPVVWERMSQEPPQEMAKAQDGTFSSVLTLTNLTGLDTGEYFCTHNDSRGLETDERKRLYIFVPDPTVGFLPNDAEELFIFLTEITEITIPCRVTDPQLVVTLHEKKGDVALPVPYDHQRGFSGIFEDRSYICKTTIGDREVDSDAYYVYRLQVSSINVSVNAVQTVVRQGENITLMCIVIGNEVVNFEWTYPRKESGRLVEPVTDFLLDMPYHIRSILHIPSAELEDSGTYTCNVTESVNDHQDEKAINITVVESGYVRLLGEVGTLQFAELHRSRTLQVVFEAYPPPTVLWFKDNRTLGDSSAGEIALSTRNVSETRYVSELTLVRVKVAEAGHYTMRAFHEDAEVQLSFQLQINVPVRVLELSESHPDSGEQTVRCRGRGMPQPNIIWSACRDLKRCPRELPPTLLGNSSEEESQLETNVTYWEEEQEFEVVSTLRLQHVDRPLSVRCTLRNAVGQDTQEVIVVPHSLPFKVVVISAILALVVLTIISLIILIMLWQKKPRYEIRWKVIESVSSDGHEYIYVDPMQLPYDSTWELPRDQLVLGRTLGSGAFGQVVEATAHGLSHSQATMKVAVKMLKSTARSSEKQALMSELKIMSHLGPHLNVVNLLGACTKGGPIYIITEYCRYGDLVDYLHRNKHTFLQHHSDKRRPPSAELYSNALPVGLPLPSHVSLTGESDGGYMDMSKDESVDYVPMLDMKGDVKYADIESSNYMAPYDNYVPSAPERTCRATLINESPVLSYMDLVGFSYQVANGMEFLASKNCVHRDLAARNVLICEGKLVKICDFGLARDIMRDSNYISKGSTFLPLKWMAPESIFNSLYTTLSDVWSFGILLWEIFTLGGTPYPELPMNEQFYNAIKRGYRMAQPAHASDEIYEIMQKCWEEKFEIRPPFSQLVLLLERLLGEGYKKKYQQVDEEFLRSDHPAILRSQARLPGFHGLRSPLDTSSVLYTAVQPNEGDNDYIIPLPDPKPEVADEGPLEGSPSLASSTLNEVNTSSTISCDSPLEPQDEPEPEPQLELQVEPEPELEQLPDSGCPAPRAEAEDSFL

SMILES | IC50
COc1cc2ncnc(N3CCN(C(=NC#N)NCc4ccc(Cl)cc4)CC3)c2cc1OC [Compound 31, N-(4-Chlorobenzyl)-N′-cyano-4-(6,7-dimethoxy-4-quinazolinyl)-1-piperazinecarboxamidine] | 380 nM
COc1cc2ncnc(N3CCN(C(=NC#N)NCc4ccc5c(c4)OCO5)CC3)c2cc1OC [Compound 41, N′-Cyano-4-(6,7-dimethoxy-4-quinazolinyl)-N-(3,4-methylenedioxybenzyl)-1-piperazinecarboxamidine] | 190 nM

same assay, conditions: CHO cells expressing human β-PDGF receptor; test compound at 10 μM

SMILES | inhibition at 10 µM
O=C(Nc1ccc(Oc2ccccc2)cc1)N1CCN(c2ncnc3cnc(F)cc23)CC1 [Compound 22, N-(4-Phenoxyphenyl)-4-(6-fluoro-4-pyrido[3,4-d]pyrimidinyl)-1-piperazinecarboxamide] | 66%
COc1cc2ncnc(N3CCN(C(=NC#N)Oc4ccccc4)CC3)c2cc1OC [Compound 67, N-Cyano-4-(6,7-dimethoxy-4-quinazolinyl)-1-piperazinecarboximidic acid phenyl ester] | 95%

More lines, now with the values ahead:

inhibition at 10 µM | SMILES
82% | COc1cc2ncnc(N3CCN(C(NCc4cccc(Cl)c4)=C(C#N)C#N)CC3)c2cc1OC [Compound 51, 4-{4-[1-(3-Chlorobenzylamino)-2,2-dicyanovinyl]-1-piperazinyl}-6,7-dimethoxyquinazoline]
87% | COc1ccc(CNC(=C(C#N)C#N)N2CCN(c3ncnc4cc(OC)c(OC)cc34)CC2)cc1 [Compound 53, 4-{4-[2,2-Dicyano-1-(4-methoxybenzylamino)vinyl]-1-piperazinyl}-6,7-dimethoxyquinazoline]
82% | COc1cc2ncnc(N3CCN(C(SC)=C(C#N)C#N)CC3)c2cc1OC [Compound 64, 4-[4-(2,2-Dicyano-1-methylthiovinyl)-1-piperazinyl]-6,7-dimethoxyquinazoline]

test system: not given; assay: not given; settings: not given

SMILES | melting point
Cn1ncc2c(N3CCN(C(=O)Nc4ccc(Oc5ccccc5)cc4)CC3)ncnc21 | 155 to 156 °C
Cl.Cl.S=C(NCc1cccnc1)N1CCN(c2ncnc3c2cnn3-c2ccccc2)CC1 | 160 to 163 °C
O=C(Nc1ccc([N+](=O)[O-])cc1)N1CCN(c2ncnc3nc[nH]c23)CC1 | 270 to 275 °C (dec.)
Cl.Cl.S=C(NCc1cccnc1)N1CCN(c2ncnc3nc[nH]c23)CC1 | 178 to 185 °C
Nc1nc(N2CCN(C(=O)Nc3ccc([N+](=O)[O-])cc3)CC2)c2[nH]cnc2n1 | 208 to 214 °C
Cl.Cl.Nc1nc(N2CCN(C(=S)NCc3cccnc3)CC2)c2[nH]cnc2n1 | 180 to 185 °C (dec.)
Cn1cnc2c(N3CCN(C(=O)Nc4ccc(Oc5ccccc5)cc4)CC3)ncnc21 | 168 to 169 °C
O=C(Nc1ccc(Oc2ccccc2)cc1)N1CCN(c2ncnc3nc[nH]c23)CC1 [Compound 1, N-(4-Phenoxyphenyl)-4-(6-purinyl)-1-piperazinecarboxamide] | 250 to 251 °C
Nc1nc(N2CCN(C(=O)Nc3ccc(Oc4ccccc4)cc3)CC2)c2[nH]cnc2n1 [Compound 5, 4-(2-Amino-6-purinyl)-N-(4-phenoxyphenyl)-1-piperazinecarboxamide] | 244 to 258 °C
Nc1nc(N2CCN(C(=S)NCc3ccccc3)CC2)c2[nH]cnc2n1 [Compound 7, 4-(2-Amino-6-purinyl)-N-benzyl-1-piperazinethiocarboxamide] | 242 to 245 °C
Cc1nn(C)c2ncc(C(N)=O)c(N3CCN(C(=O)Nc4ccc(Oc5ccccc5)cc4)CC3)c12 [Compound 12, 4-(5-Carbamoyl-1,3-dimethyl-4-1H-pyrazolo[3,4-b]pyridyl)-N-(4-phenoxyphenyl)-1-piperazinecarboxamide] | 248 to 250 °C
O=C(Nc1ccc(Oc2ccccc2)cc1)N1CCN(c2ncnc3ncccc23)CC1 [Compound 20, N-(4-Phenoxyphenyl)-4-(4-pyrido[2,3-d]pyrimidinyl)-1-piperazinecarboxamide] | 104 to 106 °C

Next, values leading:

melting point | SMILES
210 to 211 °C | Cn1ncc2c(N3CCN(C(=S)NCc4cccnc4)CC3)ncnc21
175 to 176 °C | Cn1ncc2c(N3CCN(C(=S)NCc4ccccc4)CC3)ncnc21
255 to 260 °C | S=C(NCc1ccccc1)N1CCN(c2ncnc3nc[nH]c23)CC1 [Compound 3, N-Benzyl-4-(6-purinyl)-1-piperazinethiocarboxamide]
169 to 170 °C | S=C(NCc1ccccc1)N1CCN(c2ncnc3ncccc23)CC1 [Compound 21, N-Benzyl-4-(4-pyrido[2,3-d]pyrimidinyl)-1-piperazinethiocarboxamide]
